For 4 compounds, viscosity and mass density results are on record in the NIST ThermoML archive (doi:10.1021/je400243j).

Usually viscosity stands for the internal friction of a fluid under shear. In general, mass density refers to mass per unit of volume.

± gives the expanded uncertainty stated by the source.

The conditions of this data set: 293.15 K, 101.33 kPa, Liquid; for viscosity: Concentric cylinders viscometry; for mass density: Vibrating tube method.

For `CCCCn1cc[n+](CCCS(=O)(=O)O)c1.O=S(=O)([O-])O` [1-butyl-3-(3-sulfopropyl)-imidazolium hydrogensulfate], the viscosity was found to be 1000 ± 100 mPa·s and the mass density amounted to 1346.9 ± 0.8 kg/m3.

Turning to `CCCCn1cc[n+](CCCCS(=O)(=O)O)c1.O=S(=O)([O-])O` [1-butyl-3-(4-sulfobutyl)-imidazolium hydrogensulfate], the viscosity turned out to be 1592 ± 210 mPa·s and the mass density is recorded as 1361.1 ± 0.8 kg/m3.

On to `C[n+]1ccn(CCCS(=O)(=O)O)c1.O=S(=O)([O-])O` [1-methyl-3-(3-sulfopropyl)-imidazolium hydrogensulfate], for which the viscosity amounted to 1296 ± 150 mPa·s and the mass density was determined as 1501.7 ± 0.9 kg/m3.

For `C[n+]1ccn(CCCCS(=O)(=O)O)c1.O=S(=O)([O-])O` [1-methyl-3-(4-sulfobutyl)-imidazolium hydrogensulfate], the viscosity stood at 1427 ± 180 mPa·s and the mass density was found to be 1464.7 ± 0.8 kg/m3.
